Converted amounts (≈) assume the structure as drawn. Where two headings read alike, the source gives them in different places.
How the values were obtained:
[1] = system: Staphylococcus aureus ATCC 6538P; assay: Antibacterial spectrum, minimum inhibitory concentration (Table 1); format: cell-based; conditions: ATCC6538P, read-out: Minimum Inhibitory Concentration, Staphylococcus aureus ATCC 6538P
[2] = system: Streptococcus faecalis ATCC 10541; assay: as above; format: cell-based
tumor = conditions: known; cited from earlier work
[3] = known; derivatives of U.S. Pat. No. 3,514,452; cited from earlier work
[4] = system: Gram-nagative and Gram-positive bacteria; conditions: known; cited from earlier work
[5] = system: Klebsiella penumoniae ATCC 10031; assay: Antibacterial spectrum, minimum inhibitory concentration (Table 1); format: cell-based; conditions: ATCC10031, read-out: Minimum Inhibitory Concentration, Klebsiella penumoniae ATCC 10031
[6] = Lipid-solubility: distribution ratio in butanol/water (1:1) (Table 2); format: physicochemical; conditions: in butanol/water (1:1) at 25° C
Description: In determining the lipid-solubility, the distribution ratio of the compound in water and butanol (1:1) is used as the standard.

in vivo = conditions: mouse, ip
Procedure: The acute toxicity (determined as LD50) is determined in mice by intraperitoneal injection.

Sarcoma 180 solid tumor = assay: Anti-tumor activity against Sarcoma 180 solid tumor in mice (Table 3); format: in vivo; conditions: male dd-strain mice; one-sixth of LD50 i.p. once daily for 8 days; tumor weight on 10th day after transplantation
Procedure: Small portions of Sarcoma 180 solid tumor are transplanted subcutaneously into male dd-strain mice of about 20 g body weight. To each of 10 mice transplanted with tumor, a solution containing one-sixth of the LD50 value of the test compound is administered intraperitoneally once daily for 8 days starting on the day following the transplantation.
As a control, an equal volume of saline is injected in the same manner as above. On the 10th day after the transplantation, the mice are sacrificed and the weight of the tumor is measured. The ratio of average tumor weight of test animals to average tumor weight of control animals (T/C) is calculated.

[7] = Enterococcus faecalis, ATCC10541; read-out: Minimum Inhibitory Concentration, Streptococcus faecalis ATCC 10541

SMILES: COC12C(COC(N)=O)C3=C(C(=O)C(C)=C(N)C3=O)N1CC1NC12 (single isomer, unassigned) [mitomycin C, reference compound]
- MIC [1]: 0.049 µg/mL (≈ 0.147 µM)
- MIC [2, 7]: 0.391 µg/mL (≈ 1.17 µM)
- anti-tumor activity (in words) (tumor): remarkably strong anti-tumor activity
- toxicity (in words) [3]: very toxic
- antibacterial activity (in words) [4]: very strong antibacterial activity against Gram-nagative and Gram-positive bacteria
- MIC [5]: < 0.025 µg/mL

SMILES: COC12C(COC(N)=O)C3=C(C(=O)C(C)=C(N)C3=O)N1CC1C2N1C(C)=O (stereo not drawn) [1a-acetyl mitomycin C, reference compound]
- MIC [1]: 1.56 µg/mL (≈ 4.15 µM)
- Distribution Ratio (butanol/water) [6]: 3.749
- LD50 (in vivo): 23 mg/kg
- MIC [2, 7]: 6.25 µg/mL (≈ 16.6 µM)
- toxicity (in words) [3]: much less toxicity than mitomycin C
- Sarcoma 180 (T/C), ratio of average tumor weight of test animals to control animals (Sarcoma 180 solid tumor): 0.48
- MIC [5]: 0.782 µg/mL (≈ 2.08 µM)

SMILES: CCCC(=O)N1C2CN3C4=C(C(=O)C(N)=C(C)C4=O)C(COC(N)=O)C3(OC)C21 (stereo not drawn) [1a-butyryl mitomycin C, reference compound]
- MIC [1]: 3.12 µg/mL (≈ 7.73 µM)
- Distribution Ratio (butanol/water) [6]: 4.402
- LD50 (in vivo): 19 mg/kg
- MIC [2, 7]: 25 µg/mL (≈ 61.8 µM)
- toxicity (in words) [3]: much less toxicity than mitomycin C
- Sarcoma 180 (T/C), ratio of average tumor weight of test animals to control animals (Sarcoma 180 solid tumor): 0.59
- MIC [5]: 3.12 µg/mL (≈ 7.73 µM)

SMILES: C/C=C/C(=O)N1C2CN3C4=C(C(=O)C(N)=C(C)C4=O)C(COC(N)=O)C3(OC)C21 (stereo not drawn) [1a-crotonoyl mitomycin C, reference compound]
- MIC [1]: 1.56 µg/mL (≈ 3.88 µM)
- LD50 (in vivo): 35.5 mg/kg
- MIC [2, 7]: 12.5 µg/mL (≈ 31.1 µM)
- Sarcoma 180 (T/C), ratio of average tumor weight of test animals to control animals (Sarcoma 180 solid tumor): 0.53
- MIC [5]: 0.782 µg/mL (≈ 1.94 µM)

SMILES: CCCCCCCCCC(=O)N1C2CN3C4=C(C(=O)C(N)=C(C)C4=O)C(COC(N)=O)C3(OC)C21 (stereo not drawn) [1a-decanoyl mitomycin C, la-decanoyl mitomycin C]
- MIC [1]: 0.782 µg/mL (≈ 1.6 µM)
- Distribution Ratio (butanol/water) [6]: 7.889
- LD50 (in vivo): 67.5 mg/kg
- MIC [2, 7]: > 50 µg/mL
- MIC [5]: 12.5 µg/mL (≈ 25.6 µM)

SMILES: CCCCCCCCCCCC(=O)N1C2CN3C4=C(C(=O)C(N)=C(C)C4=O)C(COC(N)=O)C3(OC)C21 (stereo not drawn) [1a-lauroyl mitomycin C, la-lauroyl mitomycin C]
- MIC [1]: 0.391 µg/mL (≈ 0.757 µM)
- LD50 (in vivo): 44.5 mg/kg
- MIC [2, 7]: > 50 µg/mL
- MIC [5]: > 50 µg/mL

SMILES: CC/C=C\C/C=C\C/C=C\CCCCCCCC(=O)N1[C@H]2[C@@H]1CN1C3=C(C(=O)C(N)=C(C)C3=O)[C@@H](COC(N)=O)[C@@]21OC [1a-linolenoyl mitomycin C, la-linolenoyl mitomycin C]
- MIC [1]: 0.782 µg/mL (≈ 1.31 µM)
- LD50 (in vivo): 95 mg/kg
- MIC [2, 7]: 1.56 µg/mL (≈ 2.63 µM)
- MIC [5]: 6.25 µg/mL (≈ 10.5 µM)

SMILES: CCCCC/C=C\C/C=C\CCCCCCCC(=O)N1C2CN3C4=C(C(=O)C(N)=C(C)C4=O)C(COC(N)=O)C3(OC)C21 (stereo not drawn) [1a-linoleoyl mitomycin C, la-linoleoyl mitomycin C]
- MIC [1]: 0.782 µg/mL (≈ 1.31 µM)
- Distribution Ratio (butanol/water) [6]: 9.665
- LD50 (in vivo): 110 mg/kg
- MIC [2, 7]: 0.782 µg/mL (≈ 1.31 µM)
- Sarcoma 180 (T/C), ratio of average tumor weight of test animals to control animals (Sarcoma 180 solid tumor): 0.35
- MIC [5]: 12.5 µg/mL (≈ 20.9 µM)

SMILES: CCCCCCCCCCCCCC(=O)N1C2CN3C4=C(C(=O)C(N)=C(C)C4=O)C(COC(N)=O)C3(OC)C21 (stereo not drawn) [1a-myristoyl mitomycin C, la-myristoyl mitomycin C]
- MIC [1]: 0.391 µg/mL (≈ 0.718 µM)
- LD50 (in vivo): 45 mg/kg
- MIC [2, 7]: 1.56 µg/mL (≈ 2.87 µM)
- MIC [5]: > 50 µg/mL

SMILES: CCCCCCCC/C=C\CCCCCCCC(=O)N1C2CN3C4=C(C(=O)C(N)=C(C)C4=O)C(COC(N)=O)C3(OC)C21 (stereo not drawn) [1a-oleoyl mitomycin C, la-oleoyl mitomycin C]
- MIC [1]: 0.782 µg/mL (≈ 1.31 µM)
- LD50 (in vivo): 105 mg/kg
- MIC [2, 7]: 1.56 µg/mL (≈ 2.61 µM)
- Sarcoma 180 (T/C), ratio of average tumor weight of test animals to control animals (Sarcoma 180 solid tumor): 0.31
- MIC [5]: > 50 µg/mL

SMILES: CCCCCCCCCCCCCCCC(=O)N1C2CN3C4=C(C(=O)C(N)=C(C)C4=O)C(COC(N)=O)C3(OC)C21 (stereo not drawn) [1a-palmitoyl mitomycin C, la-palmitoyl mitomycin C]
- MIC [1]: 0.782 µg/mL (≈ 1.37 µM)
- LD50 (in vivo): 75 mg/kg
- MIC [2, 7]: 0.782 µg/mL (≈ 1.37 µM)
- MIC [5]: > 50 µg/mL

SMILES: CCCCCC[C@@H](O)C/C=C\CCCCCCCC(=O)N1C2CN3C4=C(C(=O)C(N)=C(C)C4=O)C(COC(N)=O)C3(OC)C21 (stereo partly drawn) [1a-ricinoleoyl mitomycin C, la-ricinoleoyl mitomycin C]
- MIC [1]: 0.391 µg/mL (≈ 0.636 µM)
- LD50 (in vivo): 60 mg/kg
- MIC [2, 7]: 0.782 µg/mL (≈ 1.27 µM)
- Sarcoma 180 (T/C), ratio of average tumor weight of test animals to control animals (Sarcoma 180 solid tumor): 0.28
- MIC [5]: 0.782 µg/mL (≈ 1.27 µM)

SMILES: CCCCCCCCCCCCCCCCCC(=O)N1C2CN3C4=C(C(=O)C(N)=C(C)C4=O)C(COC(N)=O)C3(OC)C21 (stereo not drawn) [1a-stearoyl mitomycin C, la-stearoyl mitomycin C]
- MIC [1]: > 50 µg/mL
- LD50 (in vivo): 75 mg/kg
- MIC [2, 7]: > 50 µg/mL
- MIC [5]: > 50 µg/mL

SMILES: CCCCCC/C=C/CCCCCCCCCC(=O)N1[C@H]2[C@@H]1CN1C3=C(C(=O)C(N)=C(C)C3=O)[C@@H](COC(N)=O)[C@@]21OC [1a-vaccenoyl mitomycin C, la-vaccenoyl mitomycin C]
- MIC [1]: 0.782 µg/mL (≈ 1.31 µM)
- LD50 (in vivo): 105 mg/kg
- MIC [2, 7]: 3.12 µg/mL (≈ 5.22 µM)
- Sarcoma 180 (T/C), ratio of average tumor weight of test animals to control animals (Sarcoma 180 solid tumor): 0.34
- MIC [5]: 50 µg/mL (≈ 83.5 µM)

SMILES: CCCCCCCC/C=C\CCCCCCCCCCCC(=O)N1C2CN3C4=C(C(=O)C(N)=C(C)C4=O)C(COC(N)=O)C3(OC)C21 (stereo not drawn) [la-ercoyl mitomycin C]
- MIC [1]: > 50 µg/mL
- LD50 (in vivo): 125 mg/kg
- MIC ([2]; Enterococcus faecalis, ATCC10541, read-out: Minimum Inhibitory Concentration, Streptococcus faecalis ATCC 10541): > 50 µg/mL
- MIC [5]: 50 µg/mL (≈ 76.3 µM)
